From ChEMBL document CHEMBL3861943 (Medchemcomm, 2016)

Key:
[1] = Cytotoxicity against human HCT116 cells assessed as decrease in cell proliferation after 72 hrs by MTT reduction assay; type: functional, cell-based; conditions: HCT-116, 72 h
[2] = Cytotoxicity against human WI38 cells assessed as decrease in cell proliferation after 72 hrs by MTT reduction assay; type: toxicity, cell-based, WI-38
[3] = Cytotoxicity against human BxPC3 cells assessed as decrease in cell proliferation after 72 hrs by MTT reduction assay; type: functional, cell-based; conditions: BXPC-3, 72 h
[4] = molecular target: Dihydroorotate dehydrogenase (quinone), mitochondrial (Homo sapiens, UniProt Q02127); assay: Inhibition of recombinant human DHODH by DCIP-based assay; type: single protein
Dihydroorotate dehydrogenase (quinone), mitochondrial, sequence (Q02127 whole entry): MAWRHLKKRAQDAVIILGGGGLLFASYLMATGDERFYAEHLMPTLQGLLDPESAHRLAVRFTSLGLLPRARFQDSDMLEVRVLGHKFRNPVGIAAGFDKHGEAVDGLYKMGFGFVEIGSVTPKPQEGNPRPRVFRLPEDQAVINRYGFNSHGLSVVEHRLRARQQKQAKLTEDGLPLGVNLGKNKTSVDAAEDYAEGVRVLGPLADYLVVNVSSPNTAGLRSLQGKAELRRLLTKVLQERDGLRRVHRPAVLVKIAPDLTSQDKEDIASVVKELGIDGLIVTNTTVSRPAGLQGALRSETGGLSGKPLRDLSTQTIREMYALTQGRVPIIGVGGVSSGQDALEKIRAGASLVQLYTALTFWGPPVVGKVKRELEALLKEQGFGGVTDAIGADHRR

HCT-116 [5] = assay: Induction of apoptosis in human HCT116 cells assessed as early apoptotic cells at 0.2 uM after 36 hrs by annexin V-FITC/propidium iodide staining-based flow cytometric method (reference value: 2.25%); type: functional
BXPC-3 [6] = assay: Induction of apoptosis in human BxPC3 cells assessed as viable cells at 0.2 uM after 48 hrs by annexin V-FITC/propidium iodide staining-based flow cytometric method (reference value: 91.8%); type: functional; conditions: BXPC-3, 48 h, read-out: Activity
BXPC-3 [7] = assay: Induction of apoptosis in human BxPC3 cells assessed as early apoptotic cells at 0.2 uM after 36 hrs by annexin V-FITC/propidium iodide staining-based flow cytometric method (reference value: 0.344%); type: functional
HCT-116 [8] = assay: Induction of apoptosis in human HCT116 cells assessed as late apoptotic cells at 0.2 uM after 24 hrs by annexin V-FITC/propidium iodide staining-based flow cytometric method (reference value: 3.84%); type: functional
HCT-116 [9] = assay: Induction of apoptosis in human HCT116 cells assessed as necrotic cells at 0.2 uM after 48 hrs by annexin V-FITC/propidium iodide staining-based flow cytometric method (reference value: 2.14%); type: functional
BXPC-3 [10] = assay: Induction of apoptosis in human BxPC3 cells assessed as late apoptotic cells at 0.2 uM after 48 hrs by annexin V-FITC/propidium iodide staining-based flow cytometric method (reference value: 6.73%); type: functional
HCT-116 [11] = assay: Induction of apoptosis in human HCT116 cells assessed as late apoptotic cells at 0.2 uM after 48 hrs by annexin V-FITC/propidium iodide staining-based flow cytometric method (reference value: 3.84%); type: functional
BXPC-3 [12] = assay: Induction of apoptosis in human BxPC3 cells assessed as early apoptotic cells at 0.2 uM after 24 hrs by annexin V-FITC/propidium iodide staining-based flow cytometric method (reference value: 0.344%); type: functional
BXPC-3 [13] = assay: Induction of apoptosis in human BxPC3 cells assessed as late apoptotic cells at 0.2 uM after 24 hrs by annexin V-FITC/propidium iodide staining-based flow cytometric method (reference value: 6.73%); type: functional
BXPC-3 [14] = assay: Induction of apoptosis in human BxPC3 cells assessed as necrotic cells at 0.2 uM after 48 hrs by annexin V-FITC/propidium iodide staining-based flow cytometric method (reference value: 1.15%); type: functional
HCT-116 [15] = assay: Induction of apoptosis in human HCT116 cells assessed as late apoptotic cells at 0.2 uM after 36 hrs by annexin V-FITC/propidium iodide staining-based flow cytometric method (reference value: 3.84%); type: functional
HCT-116 [16] = assay: Induction of apoptosis in human HCT116 cells assessed as viable cells at 0.2 uM after 48 hrs by annexin V-FITC/propidium iodide staining-based flow cytometric method (reference value: 91.8%); type: functional; conditions: HCT-116, 48 h, read-out: Activity
HCT-116 [17] = assay: Induction of apoptosis in human HCT116 cells assessed as necrotic cells at 0.2 uM after 24 hrs by annexin V-FITC/propidium iodide staining-based flow cytometric method (reference value: 2.14%); type: functional
BXPC-3 [18] = assay: Induction of apoptosis in human BxPC3 cells assessed as necrotic cells at 0.2 uM after 24 hrs by annexin V-FITC/propidium iodide staining-based flow cytometric method (reference value: 1.15%); type: functional
HCT-116 [19] = assay: Induction of apoptosis in human HCT116 cells assessed as necrotic cells at 0.2 uM after 36 hrs by annexin V-FITC/propidium iodide staining-based flow cytometric method (reference value: 2.14%); type: functional
BXPC-3 [20] = assay: Induction of apoptosis in human BxPC3 cells assessed as necrotic cells at 0.2 uM after 36 hrs by annexin V-FITC/propidium iodide staining-based flow cytometric method (reference value: 1.15%); type: functional
HCT-116 [21] = assay: Induction of apoptosis in human HCT116 cells assessed as early apoptotic cells at 0.2 uM after 48 hrs by annexin V-FITC/propidium iodide staining-based flow cytometric method (reference value: 2.25%); type: functional
HCT-116 [22] = assay: Induction of apoptosis in human HCT116 cells assessed as early apoptotic cells at 0.2 uM after 24 hrs by annexin V-FITC/propidium iodide staining-based flow cytometric method (reference value: 2.25%); type: functional
BXPC-3 [23] = assay: Induction of apoptosis in human BxPC3 cells assessed as late apoptotic cells at 0.2 uM after 36 hrs by annexin V-FITC/propidium iodide staining-based flow cytometric method (reference value: 6.73%); type: functional
BXPC-3 [24] = assay: Induction of apoptosis in human BxPC3 cells assessed as viable cells at 0.2 uM after 24 hrs by annexin V-FITC/propidium iodide staining-based flow cytometric method (reference value: 91.8%); type: functional; conditions: BXPC-3, 24 h, read-out: Activity
BXPC-3 [25] = assay: Induction of apoptosis in human BxPC3 cells assessed as viable cells at 0.2 uM after 36 hrs by annexin V-FITC/propidium iodide staining-based flow cytometric method (reference value: 91.8%); type: functional; conditions: BXPC-3, 36 h, read-out: Activity
HCT-116 [26] = assay: Induction of apoptosis in human HCT116 cells assessed as viable cells at 0.2 uM after 36 hrs by annexin V-FITC/propidium iodide staining-based flow cytometric method (reference value: 91.8%); type: functional; conditions: HCT-116, 36 h, read-out: Activity
HCT-116 [27] = assay: Induction of apoptosis in human HCT116 cells assessed as viable cells at 0.2 uM after 24 hrs by annexin V-FITC/propidium iodide staining-based flow cytometric method (reference value: 91.8%); type: functional; conditions: HCT-116, 24 h, read-out: Activity
BXPC-3 [28] = assay: Induction of apoptosis in human BxPC3 cells assessed as early apoptotic cells at 0.2 uM after 48 hrs by annexin V-FITC/propidium iodide staining-based flow cytometric method (reference value: 0.344%); type: functional

Work on `O=C(O)c1ccccc1/C=N/N(CCO)c1nc(-c2ccccc2Cl)cs1` yielded an IC50 [1] of 763 nM, an IC50 at 72 h [2] of 48700 nM and an IC50 [3] of 4320 nM. The IC50 [4] was 425 nM.

`CC(C)N(/N=C/c1ccccc1C(=O)O)c1nc(-c2ccccc2Cl)cs1` showed an IC50 [1] of 108 nM, an IC50 at 72 h [2] of 18800 nM and an IC50 [3] of 312 nM. The IC50 [4] was 93 nM.

`CCCC(C)N(/N=C/c1ccccc1C(=O)O)c1nc(-c2ccccc2Cl)c(C)s1` (centres undefined) showed an IC50 [1] of 181 nM, an IC50 at 72 h [2] of 10100 nM and an IC50 [3] of 801 nM.

Work on `Cc1sc(N/N=C/c2ccccc2C(=O)O)nc1-c1ccccc1Cl` yielded an IC50 [1] of 375 nM, an IC50 at 72 h [2] of 44600 nM and an IC50 [3] of 2970 nM.

`CN(/N=C/c1ccc(F)cc1C(=O)O)c1nc(-c2ccccc2Cl)cs1` gave an Activity (HCT-116 [5]) of 4.54%, a viability at 0.2 µM (BXPC-3 [6]) of 4.8% and an Activity (BXPC-3 [7]) of 0.701%. The Activity (HCT-116 [8]) was 3.11%, the Activity (HCT-116 [9]) was 1.67% and the Activity (BXPC-3 [10]) was 93.2%. The Activity (HCT-116 [11]) was 25.4%, the Activity (BXPC-3 [12]) was 1.01% and the Activity (BXPC-3 [13]) was 15.4%. For the same compound, the IC50 [1] was 23 nM, the Activity (BXPC-3 [14]) was 1.59% and the Activity (HCT-116 [15]) was 7.5%. It also gave a viability at 0.2 µM (HCT-116 [16]) of 68.3%, an Activity (HCT-116 [17]) of 1.78% and an Activity (BXPC-3 [18]) of 3.23%. It also gave an Activity (HCT-116 [19]) of 1.46%, an Activity (BXPC-3 [20]) of 7.38% and an Activity (HCT-116 [21]) of 4.59%. The Activity (HCT-116 [22]) was 3.11%, the IC50 at 72 h [2] was 29700 nM and the IC50 [3] was 88 nM. The Activity (BXPC-3 [23]) was 52.6%, the viability at 0.2 µM (BXPC-3 [24]) was 80.4% and the viability at 0.2 µM (BXPC-3 [25]) was 39.3%. For the same compound, the IC50 [4] was 2 nM, the viability at 0.2 µM (HCT-116 [26]) was 86.5% and the viability at 0.2 µM (HCT-116 [27]) was 92%. It also gave an Activity (BXPC-3 [28]) of 0.392%.

Compound `Cc1sc(N/N=C/c2ccccc2C(=O)O)nc1-c1ccccc1` has an IC50 [1] of 6420 nM, an IC50 at 72 h [2] of 21500 nM and an IC50 [3] of 19800 nM.

Work on `O=C(O)c1ccccc1/C=N/Nc1nc(-c2ccccc2)cs1` yielded an IC50 [1] of 880 nM, an IC50 at 72 h [2] of 34200 nM and an IC50 [3] of 18900 nM. For the same compound, the IC50 [4] was 139 nM.

`CN(/N=C/c1ccccc1C(=O)O)c1nc(-c2cccc(Cl)c2)cs1` gave an IC50 [1] of 268 nM, an IC50 at 72 h [2] of 6570 nM and an IC50 [3] of 1590 nM.

Work on `CN(/N=C/c1ccc(C(F)(F)F)cc1C(=O)O)c1nc(-c2ccccc2Cl)cs1` yielded an IC50 [1] of 2000 nM, an IC50 at 72 h [2] of 60900 nM and an IC50 [3] of 2980 nM.

With `CCC(C)N(/N=C/c1ccccc1C(=O)O)c1nc(-c2ccccc2Cl)cs1` (centres undefined) the IC50 [1] was 244 nM, the IC50 at 72 h [2] was 8300 nM and the IC50 [3] was 536 nM. It also gave an IC50 [4] of 24 nM.

`O=C(O)c1ccccc1/C=N/Nc1nc(-c2ccccc2Cl)cs1` showed an IC50 [1] of 713 nM, an IC50 at 72 h [2] of 39100 nM and an IC50 [3] of 3410 nM. For the same compound, the IC50 [4] was 29 nM.

`Cc1c(-c2ccc(-c3ccccc3F)cc2)nc2ccc(F)cc2c1C(=O)O` [BREQUINAR SODIUM] gave an IC50 [1] of 158 nM, an IC50 at 72 h [2] of 34000 nM and an IC50 [3] of 940 nM.

With `CCCN(/N=C/c1ccccc1C(=O)O)c1nc(-c2ccccc2Cl)cs1` the IC50 [1] was 276 nM, the IC50 at 72 h [2] was 10800 nM and the IC50 [3] was 263 nM. The IC50 [4] was 9 nM.

For `Cc1ccc(/C=N/N(C)c2nc(-c3ccccc3)c(C)s2)c(C(=O)O)c1`, the IC50 [1] was 87 nM, the IC50 at 72 h [2] was 41800 nM and the IC50 [3] was 300 nM.

Work on `CCCC(C)N(/N=C/c1ccccc1C(=O)O)c1nc(-c2ccccc2Cl)cs1` (centres undefined) yielded an IC50 [1] of 588 nM, an IC50 at 72 h [2] of 29100 nM and an IC50 [3] of 988 nM.

With `CN(/N=C/c1ccccc1C(=O)O)c1nc(-c2ccccc2Cl)cs1` the IC50 [1] was 31 nM, the IC50 at 72 h [2] was 9580 nM and the IC50 [3] was 80 nM. The IC50 [4] was 8 nM.

For `CCN(/N=C/c1ccccc1C(=O)O)c1nc(-c2ccccc2Cl)cs1`, the IC50 [1] was 299 nM, the IC50 at 72 h [2] was 9980 nM and the IC50 [3] was 199 nM. For the same compound, the IC50 [4] was 59 nM.

For `CCc1sc(N/N=C/c2ccccc2C(=O)O)nc1-c1ccccc1Cl`, the IC50 [1] was 922 nM, the IC50 at 72 h [2] was 22400 nM and the IC50 [3] was 2790 nM.

With `CN(/N=C/c1ccccc1C(=O)O)c1nc(-c2cc(Cl)ccc2Cl)cs1` the IC50 [1] was 301 nM, the IC50 at 72 h [2] was 61000 nM and the IC50 [3] was 1610 nM.

In the case of `Cc1ccc(/C=N/N(C)c2nc(-c3ccccc3Cl)cs2)c(C(=O)O)c1`, the IC50 [1] is reported as 54 nM, the IC50 at 72 h [2] is reported as 17000 nM and the IC50 [3] is reported as 203 nM. The IC50 [4] was 8 nM.
